Legend:
Format in all cases: cell-based
Settings in all cases: for Zone of inhibition: 30 μg/tablet paper, 37° C., 24 h, ≥17 mm sensitive, 15-16 mm intermediary, ≤14 mm drug resistance; for Inhibitory effect (in words): summary of FIGS. 1-3 and Table 1
[1] = tested on: MRSA 18-171 (multi-resistant Staphylococcus aureus 171); assay: Paper diffusion method drug sensitivity test, MRSA 18-171
Procedure: (§1) The antimicrobial efficacy was determined by a paper diffusion method drug sensitivity test.
(§2) Experimental strains: multi-resistant Staphylococcus aureus 171, multi-resistant Staphylococcus aureus 575, multi-resistant Staphylococcus aureus 596. The experimental strains were provided by Huashan Hospital Affiliated to Fudan University (Institute of Antibiotic of Fudan University).
(§3) Drug sensitive paper: The drug sensitive paper is a special drug sensitive paper with a diameter of 6.35 mm and a water absorption of 0.02 mL. The control drug was vancomycin (30 μg/tablet); the test drug was pleuromutilin 2-[(diphenylmethyl)thio]acetic acid ester (30 μg/tablet).
(§4) The experimental strains were inoculated in non-selective medium and placed in air at 37° C. for 24 h. Pick a single colony that grows well and inoculate it into broth medium, incubate at 35° C.±2° C. for 6 hours, and use LA broth medium to calibrate the concentration of the bacterial solution to 0.5 Mie turbidimetric tube ([…]). A bacterial suspension is obtained.
(§5) LB dry powder was weighed, sterilized at 103.4 Kpa, 121.3° C. high-pressure steam for 15 min, and then placed it in a 40° C.-50° C. water bath. A sterile empty plate (inner diameter 9 cm) was placed on the surface of the ultra-clean table water table, and […] to the plate. The thickness of each plate was 3 mm to 4 mm. After the plate was cooled at room temperature, it was stored in the refrigerator at 2° C.-8° C. A sterile cotton swab was used to dip the bacterial solution and to evenly coat the surface of the LB plate 3 times. After inoculation of the bacterial suspension, the LB plate was dried at room temperature for 3 min to 5 min. Sterile forceps were used to closely attach the antibacterial drug paper to the dish. The dish was put upside down and placed in a 37° C. incubator for 24 h. The results were observed by measuring the diameter. Taking 0.5% DMSO solution as a negative control, the antibacterial activity is expressed by the diameter of the inhibition zone. The inhibition zone ≥17 mm, sensitive; the inhibition zone of 15 mm-16 mm, intermediary; the inhibition zone ≤14 mm, drug resistance.

[2] = tested on: MRSA 18-575 (multi-resistant Staphylococcus aureus 575); assay: Paper diffusion method drug sensitivity test, MRSA 18-575
Procedure: as §1, §2, §3, §4, §5

[3] = tested on: MRSA 18-596 (multi-resistant Staphylococcus aureus 596); assay: Paper diffusion method drug sensitivity test, MRSA 18-596
Procedure: as §1, §2, §3, §4, §5

Structure (SMILES)	Zone of inhibition [1] [mm]	Inhibitory effect (in words) [1]	Zone of inhibition [2] [mm]	Inhibitory effect (in words) [2]	Zone of inhibition [3] [mm]	Inhibitory effect (in words) [3]
C=C[C@]1(C)C[C@@H](OC(=O)COC(=O)CSC(c2ccccc2)c2ccccc2)[C@]2(C)[C@H](C)CC[C@]3(CCC(=O)[C@H]32)[C@@H](C)[C@@H]1O	21	strong inhibitory effects	23	strong inhibitory effects	25	strong inhibitory effects
O=C(O)CSC(c1ccccc1)c1ccccc1 [2-[(Diphenylmethyl)thio]acetic acid]	0	no inhibitory effect	0	no inhibitory effect	0	no inhibitory effect
C=C[C@]1(C)C[C@@H](OC(=O)CO)[C@]2(C)[C@H](C)CC[C@]3(CCC(=O)[C@H]32)[C@@H](C)[C@@H]1O [Pleuromutilin]	0	no inhibitory effect	0	no inhibitory effect	0	no inhibitory effect
CN[C@H](CC(C)C)C(=O)N[C@H]1C(=O)N[C@@H](CC(N)=O)C(=O)N[C@H]2C(=O)N[C@H]3C(=O)N[C@H](C(=O)N[C@H](C(=O)O)c4cc(O)cc(O)c4-c4cc3ccc4O)[C@H](O)c3ccc(c(Cl)c3)Oc3cc2cc(c3O[C@@H]2O[C@H](CO)[C@@H](O)[C@H](O)[C@H]2O[C@H]2C[C@](C)(N)[C@H](O)[C@H](C)O2)Oc2ccc(cc2Cl)[C@H]1O [Vancomycin, vancomycin]	17	–	18	–	21	–

— US11512049B2, “Pleuromutilin 2-[(diphenylmethyl)thio] acetic acid ester with anti-drug resistant bacteria activity and a method of preparing the same” (SHAANXI UNIVERSITY OF SCIENCE AND TECHNOLOGY, priority 2021, dated 2022)
